The text below walks through data of patent US8653263B2 (Janssen Pharmaceutica, priority 2009, dated 2014).

pKi: −log10 of the molar value.

For the first experiment, the target named is human orexin-2 receptor (Homo sapiens (Human), UniProt O43614). Description: Human orexin 2 receptor radioligand binding ([3H]-EMPA competition). The conditions noted are these: HEK293 cells stably expressing human orexin-2 receptor; [3H]-EMPA 5 nM final; apparent Ki=IC50/(1+C/Kd), Kd=2 nM; read-out: OR 2 Ki.
human orexin-2 receptor, sequence (O43614 whole entry): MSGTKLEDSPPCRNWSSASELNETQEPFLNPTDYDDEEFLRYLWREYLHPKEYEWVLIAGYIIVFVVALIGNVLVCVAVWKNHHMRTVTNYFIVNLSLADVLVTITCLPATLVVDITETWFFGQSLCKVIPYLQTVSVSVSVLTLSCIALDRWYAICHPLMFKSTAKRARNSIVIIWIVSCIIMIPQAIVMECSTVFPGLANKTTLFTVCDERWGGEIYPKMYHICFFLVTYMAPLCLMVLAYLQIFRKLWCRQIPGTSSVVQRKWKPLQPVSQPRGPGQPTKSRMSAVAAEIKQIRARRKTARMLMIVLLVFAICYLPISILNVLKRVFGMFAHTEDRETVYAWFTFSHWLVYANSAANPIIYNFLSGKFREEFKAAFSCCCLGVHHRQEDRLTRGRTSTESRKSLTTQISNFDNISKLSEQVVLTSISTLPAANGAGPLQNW
For the compound `Cc1cc(C)nc(N2CC3CN(C(=O)c4ccc(F)cc4-c4ccccn4)CC3C2)n1` (stereo not shown) [Example 366, (5-(4,6-Dimethylpyrimidin-2-yl)hexahydropyrrolo[3,4-c]pyrrol-2(1H)-yl)(4-fluoro-2-(pyridin-2-yl)phenyl)methanone], the pKi is 7.64.
Take `Cc1ccc(-n2nccn2)c(C(=O)N2CC3CN(c4nccc(-c5ccccc5)n4)CC3C2)c1` (stereo not shown) [Example 127, 2-{[5-Methyl-2-(2H-1,2,3-triazol-2-yl)phenyl]carbonyl}-5-(4-phenylpyrimidin-2-yl)octahydropyrrolo[3,4-c]pyrrole]: the negative-log Ki (pKi) is 7.26.
The same measure, in the same setting: with `Cc1cc(C)nc(N2CC3CN(C(=O)c4ccccc4-c4cccc(F)c4)CC3C2)n1` (stereo not shown) [Example 52, 2-(4,6-Dimethylpyrimidin-2-yl)-5-[(3′-fluorobiphenyl-2-yl)carbonyl]octahydro-pyrrolo[3,4-c]pyrrole] the figure was 7.19; with `CCc1c(C)nc(N2CC3CN(C(=O)c4ncccc4-n4nccn4)CC3C2)nc1C` (stereo not shown) [Example 385, 2-(5-Ethyl-4,6-dimethylpyrimidin-2-yl)-5-{[3-(2H-1,2,3-triazol-2-yl)pyridin-2-yl]carbonyl}octahydropyrrolo[3,4-c]pyrrole], 7.38.
Consider `Cc1cc(C)nc(N2CC3CN(C(=O)c4cccnc4C(F)(F)F)CC3C2)n1` (stereo not shown) [Example 233, 2-(4,6-Dimethylpyrimidin-2-yl)-5-{[2-(trifluoromethyl)pyridin-3-yl]carbonyl}octahydropyrrolo[3,4-c]pyrrole], for which the pKi was 5.68.
`COc1cc(OC)nc(N2CC3CN(C(=O)c4ccccc4-c4ccccn4)CC3C2)n1` (stereo not shown) [Example 70, 2-(4,6-Dimethoxypyrimidin-2-yl)-5-[(2-pyridin-2-ylphenyl)carbonyl]octahydro-pyrrolo[3,4-c]pyrrole]: the pKi was 7.28.
The same measure, in the same setting: with `Cc1ccc2ccccc2c1C(=O)N1CC2CN(c3nccc(-c4ccccc4)n3)CC2C1` (stereo not shown) [Example 25, 2-[(2-Methylnaphthalen-1-yl)carbonyl]-5-(4-phenylpyrimidin-2-yl)octahydropyrrolo[3,4-c]pyrrole] the figure was 6.96.
In the case of `CCOc1cccc(OCC)c1C(=O)N1CC2CN(c3nc(C)cc(C)n3)CC2C1` (stereo not shown) [Example 229, 2-[(2,6-Diethoxyphenyl)carbonyl]-5-(4,6-dimethylpyrimidin-2-yl)octahydropyrrolo[3,4-c]pyrrole], the pKi was 6.50.
In the case of `O=C(c1ccccc1-n1nccn1)N1CC2CN(c3nccc(-c4ccco4)n3)CC2C1` (stereo not shown) [Example 151, 2-(4-Furan-2-ylpyrimidin-2-yl)-5-{[2-(2H-1,2,3-triazol-2-yl)phenyl]carbonyl}octahydropyrrolo[3,4-c]pyrrole], the pKi was 6.74.
Still for that read-out and setting: with `Cc1cc(C)nc(N2CC3CN(C(=O)c4ccccc4OC(F)(F)F)CC3C2)n1` (stereo not shown) [Example 274, (5-(4,6-Dimethylpyrimidin-2-yl)hexahydropyrrolo[3,4-c]pyrrol-2(1H)-yl)(2-(trifluoromethoxy)phenyl)methanone] the figure was 7.21.
The same measure, in the same setting: with `Cc1cc(C)nc(N2CC3CN(C(=O)c4cccc(F)c4-n4ccnn4)CC3C2)n1` (stereo not shown) [Example 287, 2-(4,6-Dimethylpyrimidin-2-yl)-5-{[3-fluoro-2-(1H-1,2,3-triazol-1-yl)phenyl]carbonyl}octahydropyrrolo[3,4-c]pyrrole] the figure was 5.85; with `Cc1nc(N2CC3CN(C(=O)c4ccccc4-c4ncn(C)n4)CC3C2)nc(C)c1Cl` (stereo not shown) [Example 320, 2-(5-Chloro-4,6-dimethylpyrimidin-2-yl)-5-{[2-(1-methyl-1H-1,2,4-triazol-3-yl)phenyl]carbonyl}octahydropyrrolo[3,4-c]pyrrole], 8.40; with `Cc1cc(C)c(C(=O)N2CC3CN(c4nc(C)cc(C)n4)CC3C2)c(C)c1` (stereo not shown) [Example 270, (5-(4,6-Dimethylpyrimidin-2-yl)hexahydropyrrolo[3,4-c]pyrrol-2(1H)-yl)(mesityl)methanone], 5.99.
As for `O=C(c1ccccc1-n1nccn1)N1CC2CN(c3cnc4ccccc4n3)CC2C1` (stereo not shown) [Example 149, 2-[5-{[2-(2H-1,2,3-Triazol-2-yl)phenyl]carbonyl}hexahydropyrrolo[3,4-c]pyrrol-2(1H)-yl]quinoxaline], the pKi was 6.76.
Take `Cc1noc(-c2ccccc2C(=O)N2CC3CN(c4nc(C)c(Cl)c(C)n4)CC3C2)n1` (stereo not shown) [Example 318, 2-(5-Chloro-4,6-dimethylpyrimidin-2-yl)-5-{[2-(3-methyl-1,2,4-oxadiazol-5-yl)phenyl]carbonyl}octahydropyrrolo[3,4-c]pyrrole]: the pKi was 8.30.
With `Cc1cc(C)nc(N2CC3CN(C(=O)c4ccc5ccccc5c4Br)CC3C2)n1` (stereo not shown) [Example 337, (1-Bromo-naphthalen-2-yl)-[5-(4,6-dimethyl-pyrimidin-2-yl)-hexahydro-pyrrolo[3,4-c]pyrrol-2-yl]-methanone], the pKi was 6.29.
Regarding `Cc1cc(C)nc(N2CC3CN(C(=O)c4ccccc4-c4nccn4C)CC3C2)n1` (stereo not shown) [Example 39, [5-(4,6-Dimethyl-pyrimidin-2-yl)-hexahydro-pyrrolo[3,4-c]pyrrol-2-yl]-[2-(1-methyl-1H-imidazol-2-yl)-phenyl]-methanone], the pKi was 5.05.
For `Cc1ccnc(N2CC3CN(C(=O)c4c(C)ccc5ccccc45)CC3C2)n1` (stereo not shown) [Example 50, 2-[(2-Methylnaphthalen-1-yl)carbonyl]-5-(4-methylpyrimidin-2-yl)octahydro-pyrrolo[3,4-c]pyrrole], the pKi was 6.67.
As for `O=C(c1ccccc1-c1cccc(Cl)c1)N1CC2CN(c3nccc(-c4ccccc4)n3)CC2C1` (stereo not shown) [Example 198, (3′-Chloro-biphenyl-2-yl)-[5-(4-phenyl-pyrimidin-2-yl)-hexahydro-pyrrolo[3,4-c]pyrrol-2-yl]-methanone], the pKi was 5.88.
Take `Cc1ccnc(N2CC3CN(C(=O)c4ccccc4-c4cccs4)CC3C2)n1` (stereo not shown) [Example 32, 2-(4-Methylpyrimidin-2-yl)-5-[(2-thiophen-2-ylphenyl)carbonyl]octahydro-pyrrolo[3,4-c]pyrrole]: the pKi is 7.33.
The same measure, in the same setting: as for `Cc1cc(C)nc(N2CC3CN(C(=O)c4nc(C)sc4-c4ccccc4F)CC3C2)n1` (stereo not shown) [Example 132, 2-(4,6-Dimethylpyrimidin-2-yl)-5-{[5-(2-fluorophenyl)-2-methyl-1,3-thiazol-4-yl]carbonyl}octahydropyrrolo[3,4-c]pyrrole], the figure is 6.90.
The same measure, in the same setting: as for `Cc1ccccc1C(=O)N1CC2CN(c3cnc4ccccc4n3)CC2C1` (stereo not shown) [Example 30, 2-{5-[(2-Methylphenyl)carbonyl]hexahydropyrrolo[3,4-c]pyrrol-2(1H)-yl}quinoxaline], the figure is 6.10; as for `COc1cc(OC)nc(N2CC3CN(C(=O)c4ccccc4-n4cccn4)CC3C2)n1` (stereo not shown) [Example 78, 2-(4,6-Dimethoxypyrimidin-2-yl)-5-{[2-(1H-pyrazol-1-yl)phenyl]carbonyl}octahydro-pyrrolo[3,4-c]pyrrole], 6.26.
In the case of `COc1ccc(C(=O)N2CC3CN(c4ncc5cc(F)ccc5n4)CC3C2)c(-n2nccn2)c1` (stereo not shown) [Example 388], the pKi was 7.52.

The same experiment, now with this note: read-out: OR 2 Ki.
Consider `Cc1ccc(-c2c(F)cccc2C(=O)N2CC3CN(c4nc(C)cc(C)n4)CC3C2)nc1` (stereo not shown) [Example 374, (5-(4,6-Dimethylpyrimidin-2-yl)hexahydropyrrolo[3,4-c]pyrrol-2(1H)-yl)(3-fluoro-2-(5-methylpyridin-2-yl)phenyl)methanone], for which the pKi was 7.14.
